# Laboratory results published in publication PMC12062876, “Efficient constitution of a library of rotenoid analogs active against Trypanosoma cruzi from a digitalized plant extract collection” (RSC Advances, 2025).
# Key:
# T. cruzi amastigotes = test: Activity against intracellular T. cruzi amastigotes; assay type: cell-based, Trypanosoma cruzi; conditions: intracellular amastigotes grown in rat L6 cells; means of two independent assays; read-out: IC50 T. cruzi amastigotes
# Excerpt: The bioactivity of isolated compounds against intracellular T. cruzi amastigotes grown in rat L6 […] is presented in Table 1. […] Rotenone and deguelin are known to be strong mitochondrial complex I (also known as NADH:ubiquinone oxidoreductase) inhibitors,[43–45] while different activities between closely related rotenoids (rotenone, 5′-α-epirotenone, and 5′-β-epirotenone) has already been shown. […] The variation in activity observed on our rapidly generated series of structural analogs points in the same direction. As shown in Fig. 3 and Table 1, the cyclic and bent form of the rotenoid at the B/C ring junction is essential for activity, since compounds 40 and 41 were not active.
# The pure compounds activity was assessed against T. cruzi amastigotes as described in ref. [27].
# [1] = test system: L6 cells (rat skeletal myoblast); test: Cytotoxicity assay: L-6 cells; assay type: cell-based; conditions: means of two independent assays
# Method: The pure compounds cytotoxicity was assessed against L6 cells as described in ref. [27].
substance,measurement,setting,value
medicarpin [Compound 15],IC50,T. cruzi amastigotes,202 µM
same,IC50,[1],226 µM
